For experiment [1], the system named is HCT116 and A375 cell lines. Briefly: Cell proliferation assay (CellTiter-Glo). Format: cell-based. The following applies: Homo sapiens; in either cell line (HCT116 or A375); 72 h exposure. As to the method: Compounds are tested in a cell proliferation assay using the following cell lines:
(§1) Both cell lines are maintained in DMEM/F12 (1:1) media (Gibco) supplemented with 10% FCS at 37° C. in a 5% CO2 humidified incubator.
Cells are seeded in 96-well plates at 2,000 cells/well and after 24 hours they are exposed to different concentrations of compounds in 0.83% DMSO. Cells are grown for a further 72 h, and an equal volume of CellTiter-Glo reagent (Promega) is added to each well. This lyses the cells and generates a luminescent signal proportional to the amount of ATP released (and therefore proportional to the number of cells in the well) that can be detected using a multi-well luminometer.
The EC50 is defined as the concentration at which a given compound achieves 50% inhibition of control. IC50 values are calculated using the XLfit software package (version 2.0.5).
(In general: ATP-based viability assays read luminescence as a measure of living cells.)

Experiment [2] concerns phospho-ERK in HCT116 and A375 cell lines. The experiment can be described thus: Phospho-ERK cell-based assay. To be noted: Homo sapiens; in either cell line (HCT116 or A375); 2 h or 24 h exposure. As for the experimental part: Compounds are tested in a cell-based phospho-ERK ELISA using the following cell lines:
as §1
Cells are seeded in 96-well plates at 2,000 cells/well and after 24 h they are exposed to different concentrations of compounds in 0.83% DMSO. Cells are grown for a further 2 h or 24 h, fixed with formaldehyde (2% final) and permeabilised with methanol. Following blocking with TBST-3% BSA, fixed cells are incubated with primary antibody (anti-phospho ERK from rabbit) over-night at 4° C. Cells are incubated with Propidium Iodide (DNA fluorescent dye) and detection of cellular p-ERK is performed using an anti-rabbit secondary antibody conjugated to the fluorescent Alexa Fluor 488 dye (Molecular probes). The fluorescence is analysed using the Acumen Explorer (TTP Labtech), a laser-scanning microplate cytometer, and the Alexa Fluor 488 signal is normalised to the PI signal (proportional to cell number).
The EC50 is defined as the concentration at which a given compound achieves a signal half way between the baseline and the maximum response. EC50 values are calculated using the XLfit software package (version 2.0.5).

This note sets out measurements from patent US7855216B2, “Aza-indolyl compounds and methods of use” (Genentech, Inc., priority 2006, dated 2010).

In general, EC50 refers to the midpoint of the concentration-response curve.

Bounds are passed on as bounds.

Consider `Cn1c(C(=O)NOC[C@H](O)CO)c(Nc2ccc(I)cc2F)c2cnccc21` [Example 5, 3-(2-Fluoro-4-iodo-phenylamino)-1-methyl-1H-pyrrolo[3,2-c]pyridine-2-carboxylic acid ((R)-2,3-dihydroxy-propoxy)-amide], for which the EC50 in experiment [1] and in experiment [2] was under 10 µM throughout.
`Cn1c(C(=O)NOCCO)c(Nc2ccc(I)cc2F)c2cnccc21` [Example 6, 3-(2-Fluoro-4-iodo-phenylamino)-1-methyl-1H-pyrrolo[3,2-c]pyridine-2-carboxylic acid (2-hydroxy-ethoxy)-amide]: the EC50 in experiment [1] and in experiment [2] was under 10 µM in each case.
For the compound `COCCn1c(C(=O)NOCCO)c(Nc2ccc(I)cc2F)c2cnccc21` [Example 7], the EC50 in experiment [1] and in experiment [2] was under 10 µM each time.
For the compound `COc1ccc(Cn2c(C(=O)NOCCO)c(Nc3ccc(I)cc3F)c3cnccc32)cc1` [Example 8], the EC50 in experiment [1] and in experiment [2] was under 10 µM in each case.
With `O=C(NOCCO)c1[nH]c2ccncc2c1Nc1ccc(I)cc1F` [Example 10], the EC50 in experiment [1] and in experiment [2] was under 10 µM each time.
Regarding `CCn1c(C(=O)NOCCO)c(Nc2ccc(I)cc2F)c2cnccc21` [Example 11], the EC50 in experiment [1] and in experiment [2] was under 10 µM in each case.
Consider `Cn1c(C(=O)NO)c(Nc2ccc(I)cc2F)c2cnccc21` [Example 13], for which the EC50 in experiment [1] and in experiment [2] was under 10 µM throughout.
For `Cn1c(C(=O)NOCC2CC2)c(Nc2ccc(I)cc2F)c2cnccc21` [Example 15], the EC50 in experiment [1] and in experiment [2] was under 10 µM each time.
Regarding `Cn1c(C(N)=O)c(Nc2ccc(I)cc2F)c2cnccc21` [Example 16], the EC50 in experiment [1] and in experiment [2] was under 10 µM in each case.
With `COc1ccc(Cn2c(C(N)=O)c(Nc3ccc(I)cc3F)c3cnccc32)cc1` [Example 17], in experiment [2], the EC50 was under 10 µM.
Consider `O=C(NOCCO)c1c(Nc2ccc(I)cc2F)c2cnccc2n1CC1CC1` [Example 23], for which the EC50 in experiment [1] and in experiment [2] was under 10 µM each time.
As to `O=C(NOCCO)c1c(Nc2ccc(I)cc2F)c2cnccc2n1Cc1ccccc1` [Example 24], the EC50 in experiment [1] and in experiment [2] was under 10 µM each time.
Take `O=C(NOCCO)c1c(Nc2ccc(I)cc2F)c2cnccc2n1Cc1ccncc1` [Example 25]: the EC50 in experiment [1] and in experiment [2] was under 10 µM in each case.
For `O=C(NOCCO)c1c(Nc2ccc(I)cc2F)c2cnccc2n1Cc1cccnc1` [Example 26], the EC50 in experiment [1] and in experiment [2] was under 10 µM in each case.
`O=C(NOCCO)c1c(Nc2ccc(I)cc2F)c2cnccc2n1Cc1ccccc1F` [Example 27]: the EC50 in experiment [1] and in experiment [2] was under 10 µM each time.
Turning to `O=C(NOCCO)c1c(Nc2ccc(I)cc2F)c2cnccc2n1Cc1cccc(C(F)(F)F)c1` [Example 28], the EC50 in experiment [2] was under 10 µM.
On the same count and under the same terms, in the case of `CS(=O)(=O)c1ccc(Cn2c(C(=O)NOCCO)c(Nc3ccc(I)cc3F)c3cnccc32)cc1` [Example 29] it was under 10 µM.
Take `CN(C)C(=O)c1ccc(Cn2c(C(=O)NOCCO)c(Nc3ccc(I)cc3F)c3cnccc32)cc1` [Example 30]: in experiment [2], the EC50 was under 10 µM.
On to `O=C(NOCCO)c1c(Nc2ccc(I)cc2F)c2cnccc2n1CCc1ccccc1` [Example 31], for which the EC50 in experiment [1] and in experiment [2] was under 10 µM in each case.
With `O=C(NOCCO)c1c(Nc2ccc(I)cc2F)c2cnccc2n1Cc1ccc(F)cc1` [Example 33], the EC50 in experiment [1] and in experiment [2] was under 10 µM each time.
In the case of `O=C(NOCCO)c1[nH]c2c(Cl)cncc2c1Nc1ccc(I)cc1F` [Example 34], the EC50 in experiment [2] is under 10 µM.
As for `Cn1c(C(=O)NOCCO)c(Nc2ccc(I)cc2F)c2cncc(F)c21` [Example 37], the EC50 in experiment [1] and in experiment [2] was under 10 µM in each case.
On to `O=C(NOCC1CC1)c1[nH]c2ccncc2c1Nc1ccc(I)cc1F` [Example 38], for which the EC50 in experiment [1] and in experiment [2] was under 10 µM in each case.
`Cn1c(C(=O)NOCCO)c(Nc2ccc(I)cc2F)c2cncc(Cl)c21` [Example 39]: the EC50 in experiment [1] and in experiment [2] was under 10 µM each time.
With `CC(C)(C)ONC(=O)c1[nH]c2ccncc2c1Nc1ccc(I)cc1F` [Example 40], the EC50 in experiment [1] and in experiment [2] was under 10 µM throughout.
On to `O=C(NOCCO)c1c(Nc2ccc(I)cc2F)c2cnccc2n1CCCO` [Example 41], for which the EC50 in experiment [1] and in experiment [2] was under 10 µM in each case.
Compound `CN(C)C(=O)c1ccc(Cn2c(C(=O)NOCCO)c(Nc3ccc(I)cc3F)c3cnccc32)cc1` [Example 42] returned an EC50 in experiment [1] of under 10 µM.
Regarding `O=C(NOCCO)c1c(Nc2ccc(I)cc2F)c2cnccc2n1Cc1ccc(C(F)(F)F)cc1` [Example 43], the EC50 in experiment [1] and in experiment [2] was under 10 µM each time.
Turning to `N#Cc1ccc(Cn2c(C(=O)NOCCO)c(Nc3ccc(I)cc3F)c3cnccc32)cc1` [Example 44], the EC50 in experiment [1] and in experiment [2] was under 10 µM throughout.
In the case of `CN(C)C(=O)c1cccc(Cn2c(C(=O)NOCCO)c(Nc3ccc(I)cc3F)c3cnccc32)c1` [Example 45], the EC50 in experiment [1] and in experiment [2] was under 10 µM each time.
`N#Cc1ccc(Cn2c(C(=O)NOCCO)c(Nc3ccc(I)cc3F)c3cnccc32)s1` [Example 46]: the EC50 in experiment [1] and in experiment [2] was under 10 µM in each case.
Turning to `CN(C)S(=O)(=O)c1cccc(Cn2c(C(=O)NOCCO)c(Nc3ccc(I)cc3F)c3cnccc32)c1` [Example 47], the EC50 in experiment [1] and in experiment [2] was under 10 µM each time.
For `N#Cc1cccc(Cn2c(C(=O)NOCCO)c(Nc3ccc(I)cc3F)c3cnccc32)c1` [Example 48], the EC50 in experiment [1] and in experiment [2] was under 10 µM in each case.
Turning to `O=C(NOCCO)c1[nH]c2c(F)cncc2c1Nc1ccc(I)cc1F` [Example 49], the EC50 in experiment [1] and in experiment [2] was under 10 µM in each case.
Take `CN(C)S(=O)(=O)c1ccc(Cn2c(C(=O)NOCCO)c(Nc3ccc(I)cc3F)c3cnccc32)cc1` [Example 50]: the EC50 in experiment [2] was under 10 µM.
As for `C[C@H](O)CONC(=O)c1c(Nc2ccc(I)cc2F)c2cncc(F)c2n1C` [Example 54], the EC50 in experiment [1] and in experiment [2] was under 10 µM in each case.
As to `CSc1ccc(Nc2c(C(=O)NOCCO)n(C)c3ccncc23)c(F)c1` [Example 56], the EC50 in experiment [1] and in experiment [2] was under 10 µM throughout.
For `CSc1ccc(Nc2c(C(=O)NOC(C)(C)CO)n(C)c3ccncc23)c(F)c1` [Example 57], the EC50 in experiment [1] and in experiment [2] was under 10 µM in each case.
Regarding `CSc1ccc(Nc2c(C(=O)NOC[C@H](C)O)n(C)c3ccncc23)c(F)c1` [Example 58], the EC50 in experiment [1] and in experiment [2] was under 10 µM throughout.
`CSc1ccc(Nc2c(C(=O)NOC(C)(C)CO)[nH]c3ccncc23)c(F)c1` [Example 59, 3-(2-Fluoro-4-methylsulfanyl-phenylamino)-1H-pyrrolo[3,2-c]pyridine-2-carboxylic acid (2-hydroxy-1,1-dimethyl-ethoxy)-amide semiformate]: the EC50 in experiment [1] and in experiment [2] was under 10 µM throughout.
`O=C(NOCCO)c1c(Nc2ccc(I)cc2F)c2cnccc2n1C1CC1` [Example 61, 1-Cyclopropyl-3-(2-fluoro-4-iodo-phenylamino)-1H-pyrrolo[3,2-c]pyridine-2-carboxylic acid (2-hydroxy-ethoxy)-amide]: the EC50 in experiment [1] and in experiment [2] was under 10 µM in each case.
Compound `CSc1ccc(Nc2c(C(=O)NOCCO)n(C3CC3)c3ccncc23)c(F)c1` [Example 62, 1-Cyclopropyl-3-(2-fluoro-4-methylsulfanyl-phenylamino)-1H-pyrrolo[3,2-c]pyridine-2-carboxylic acid (2-hydroxy-ethoxy)-amide] came in with an EC50 in experiment [2] of under 10 µM.
On to `O=C(NOCC(O)CO)c1c(Nc2ccc(I)cc2F)c2cnccc2n1C1CC1` (stereo not shown) [Example 63, 1-Cyclopropyl-3-(2-fluoro-4-iodo-phenylamino)-1H-pyrrolo[3,2-c]pyridine-2-carboxylic acid (2,3-dihydroxy-propoxy)-amide], for which the EC50 in experiment [1] and in experiment [2] was under 10 µM throughout.
Regarding `C#CCn1c(C(=O)NOCCO)c(Nc2ccc(I)cc2F)c2cnccc21` [Example 64, 3-(2-Fluoro-4-iodo-phenylamino)-1-prop-2-ynyl-1H-pyrrolo[3,2-c]pyridine-2-carboxylic acid (2-hydroxy-ethoxy)-amide], the EC50 in experiment [1] and in experiment [2] was under 10 µM throughout.
For the compound `O=C(NOCCO)c1c(Nc2ccc(I)cc2F)c2cnccc2n1CC#CCO` [Example 65, 3-(2-Fluoro-4-iodo-phenylamino)-1-(4-hydroxy-but-2-ynyl)-1-H-pyrrolo[3,2-c]pyridine-2-carboxylic acid (2-hydroxy-ethoxy)-amide], the EC50 in experiment [1] and in experiment [2] was under 10 µM in each case.
